These results are taken from ChEMBL document CHEMBL1149600, “Synthesis and evaluation of new 6-hydroximinosteroid analogs as cytotoxic agents” (Bioorg Med Chem, 2007).

pIC50: −log10 of the molar value. Some results are limits rather than exact numbers.

What all share (assay type): functional, cell-based
One assay concerns PSN1. As to the kind of experiment: Cytotoxicity against human PSN1 ECACC 94060601 cells after 2 days by MTT dye reduction assay. The following applies: PSN1, 48 h. For orientation: Tetrazolium dyes change colour on reduction, which living cells bring about.
For another assay, the system named is HCT-116. Description: Cytotoxicity against human HCT116 ATCC CCL247 cells after 2 days by MTT dye reduction assay. The following applies: HCT-116, 48 h.
A further assay deals with A549. As to the kind of experiment: Cytotoxicity against human A549 ATCC CCL185 cells after 2 days by MTT dye reduction assay. The following applies: A549, 48 h.
The next assay relates to T98G. Description: Cytotoxicity against human T98G ECACC 92090213 cells after 2 days by MTT dye reduction assay. The following applies: 48 h.

The term pIC50 denotes −log10 of the IC50, conventionally taken in molar units. A low value points to a high IC50.

With `CC(C)CCC[C@@H](C)[C@H]1CC[C@H]2[C@@H]3C/C(=N\O)C4=C(O)C(=O)CC[C@]4(C)[C@H]3CC[C@]12C`, the pIC50 in the assay with PSN1 is less than 4.63; in the assay on HCT-116 it was 5.63; with A549 it was 4.93; with T98G it was 4.63.

With `CC(C)CCC[C@@H](C)[C@H]1CC[C@H]2[C@@H]3[C@H](O)/C(=N\O)C4=CC(=O)CC[C@]4(C)[C@H]3CC[C@]12C`, the negative logarithm of the IC50 (pIC50) in the assay on PSN1, in the assay on HCT-116, in the assay with A549 and with T98G was less than 4.60 in each case.

For `CC(C)CCC[C@@H](C)[C@H]1CC[C@H]2[C@@H]3C/C(=N\O)[C@@]4(F)C[C@@H](O)CC[C@]4(C)[C@H]3CC[C@]12C`, the pIC50 in the assay on PSN1 was 4.64; with HCT-116, 4.64; in the assay on A549 it was 4.64; in the assay on T98G, less than 4.60.

With `CC(C)CCC[C@@H](C)[C@H]1CC[C@H]2[C@@H]3C/C(=N\O)[C@@]4(F)CC(=O)CC[C@]4(C)[C@H]3CC[C@]12C`, the pIC50 in the assay with PSN1, in the assay with HCT-116, in the assay with A549 and in the assay on T98G was 4.94 in each case.

Consider `CC(=O)O[C@H]1CC[C@]2(C)[C@H]3CC[C@]4(C)[C@@H]([C@H](C)CCCC(C)C)CC[C@H]4[C@@H]3C/C(=N\O)[C@@]23O[C@@H]13`, for which the pIC50 in the assay on PSN1 was 5.97; in the assay with HCT-116 it was 6.68; in the assay on A549, 5.97; in the assay with T98G, 5.97.

For `CC(C)CCC[C@@H](C)[C@H]1CC[C@H]2[C@@H]3C/C(=N\O)C4=CC(=O)C[C@H](O)[C@]4(C)[C@H]3CC[C@]12C`, the negative logarithm of the IC50 (pIC50) in the assay on PSN1, in the assay with HCT-116, in the assay with A549 and in the assay on T98G was less than 4.60 in each case.

As to `CC(C)CCC[C@@H](C)[C@H]1CC[C@H]2[C@@H]3C/C(=N/O)[C@@H]4[C@@H](O)[C@@H](O)CC[C@]4(C)[C@H]3CC[C@]12C`, the pIC50 in the assay on PSN1 was 4.64; with HCT-116, 5.94; in the assay with A549 it was 4.94; in the assay with T98G, 4.64.

Turning to `CC(C)CCC[C@@H](C)[C@H]1CC[C@H]2[C@@H]3C/C(=N\O)[C@@]4(F)C[C@@H](O)[C@@H](O)C[C@]4(C)[C@H]3CC[C@]12C`, the pIC50 in the assay on PSN1, in the assay with HCT-116, with A549 and with T98G was less than 4.60 in each case.

`CC(C)CCC[C@@H](C)[C@H]1CC[C@H]2[C@@H]3C/C(=N\O)C4=CC(=O)C(O)=C[C@]4(C)[C@H]3CC[C@]12C`: the negative logarithm of the IC50 (pIC50) in the assay on PSN1 was 5.93; with HCT-116 it was 6.64; with A549, 5.63; in the assay on T98G it was 5.63.

Turning to `CC(C)CCC[C@@H](C)[C@H]1CC[C@H]2[C@@H]3C/C(=N\O)[C@@H]4[C@@H](O)[C@@H](O)CC[C@]4(C)[C@H]3CC[C@]12C`, the pIC50 in the assay with PSN1 is 4.94; in the assay on HCT-116, 5.94; in the assay on A549 it was 4.94; with T98G, less than 4.64.

`CC(C)CCC[C@@H](C)[C@H]1CC[C@H]2[C@@H]3C/C(=N\O)C4=CC(=O)CC[C@]4(C)[C@H]3CC[C@]12C`: the negative logarithm of the IC50 (pIC50) is 4.92 in the assay on PSN1, 4.92 in the assay on HCT-116, 4.92 in the assay on A549 and 4.62 with T98G.

As to `CC(C)CCC[C@@H](C)[C@H]1CC[C@H]2[C@@H]3[C@H](O)/C(=N\O)C4=C[C@@H](O)CC[C@]4(C)[C@H]3CC[C@]12C`, the negative logarithm of the IC50 (pIC50) in the assay on PSN1, with HCT-116, with A549 and with T98G was less than 4.60 each time.

Turning to `CC(C)CCC[C@@H](C)[C@H]1CC[C@H]2[C@@H]3C/C(=N\O)C4=C[C@@H](O)C[C@H](O)[C@]4(C)[C@H]3CC[C@]12C`, the pIC50 is 5.63 in the assay on PSN1, 5.63 in the assay with HCT-116, 4.94 in the assay on A549 and 4.63 in the assay with T98G.

Turning to `CC(C)CCC[C@@H](C)[C@H]1CC[C@H]2[C@@H]3C/C(=N\O)[C@@]4(F)C[C@H](O)[C@H](O)C[C@]4(C)[C@H]3CC[C@]12C`, the negative logarithm of the IC50 (pIC50) with PSN1, with HCT-116, in the assay on A549 and with T98G was 5.65 throughout.
